The values below are quoted from earlier work in patent US20110015663A1, “Combination Therapies for the Treatment of Obesity” (priority 2009, published 2011).

For series [1] the following is noted: literature studies.

With `CCN[C@@H](C)Cc1cccc(C(F)(F)F)c1` [dexfenfluramine], in series [1], the “weight loss for drug compared with placebo” value is “about 5 % of body weight”.
With `CCCCCCCCCCC[C@@H](C[C@@H]1OC(=O)[C@H]1CCCCCC)OC(=O)[C@H](CC(C)C)NC=O` [orlistat], the “weight loss for drug compared with placebo” value in series [1] is recorded as “about 5 % of body weight”.
`CC(C)CC(N(C)C)C1(c2ccc(Cl)cc2)CCC1` (stereo not drawn) [sibutramine]: the “weight loss for drug compared with placebo” value in series [1] is recorded as “about 5 % of body weight”.
For the molecule `CC(C)(N)Cc1ccccc1` [phentermine], the “weight loss for drug compared with placebo” value in series [1] is recorded as “about 5 % of body weight”.
As for G-2-beta-cyclodextrin, the solubility in water is recorded as 147 % (w/v).
Regarding triacetyl-beta-cyclodextrin, the solubility in water entry is “insoluble”.
